In patent US20230322815A1, “NOVEL COMPOUNDS AND THERAPEUTIC USES THEREOF” (University of Huddersfield, priority 2020, published 2023):

Test: Dephosphorylation of phosphorylated amino acid (31P NMR)
Details: 37° C.
Method: FIG. 6. Phosphatase activity of [L2Zn3]^6+. ^31P NMR spectra using different substrates including PhOPO3 (spectra A to D), serine phosphate (spectra E to H), threonine phosphate (spectra I to L) and tyrosine phosphate (spectra M to P). Specific details for each ^31P NMR spectra are as follows: Spectra A, E, I and M represent substrate alone (44 hrs incubated @ 37° C.); Spectra B, F, J and N represents [L2Zn3]^6+ plus substrate (t=0 min); Spectra C, G, K and O represents [L2Zn3]^6+ plus substrate incubated @ 37° C. for 19 hours; Spectra D, H, L and […] represents [L2Zn3]^6+ plus substrate incubated @ 37° C. for 44 hours. The ^31P NMR of [L2Zn3(PO4)]^3+ gives a signal at 8.6 ppm.
Given the importance of protein phosphorylation in inter- and intra-cellular signalling and to cell function, and its common dysregulation in cancers,^30, 31 it was next analysed whether the Zn^2+ complex could dephosphorylate the phosphorylated amino acids serine, threonine and tyrosine. […] Dephosphorylation of the amino acid threonine-OPO3^2− by the Zn^2+ complex was much slower however and after 48 hrs threonine-OPO3^2− was still the major species (FIG. 6, spectra I-L). Differences in reactivity towards different substrates can be attributed to both steric and electronic effects. […]

Question: For [Zn+2].[Zn+2].[Zn+2].c1ccc(-c2csc(NCCN(CCNc3nc(-c4ccccn4)cs3)CCNc3nc(-c4ccccn4)cs3)n2)nc1.c1ccc(-c2csc(NCCN(CCNc3nc(-c4ccccn4)cs3)CCNc3nc(-c4ccccn4)cs3)n2)nc1 [[L2Zn3]^6+], which “time to completion of dephosphorylation” value is on record?
Answer: 48 h
